Laboratory results from patent US8076366B2, “Forms of bendamustine free base” (Cephalon, Inc., priority 2009, dated 2011).

Assay: Variable temperature X-ray powder diffraction (VT-XRPD) of Form 3: solid-state thermal stability
Format: physicochemical
Experimental: Variable temperature studies were performed with an Anton Paar TTK450 temperature chamber under computer control through an Anton Paar TCU100 temperature control unit. Typically, the measurements were done with a nitrogen flow through the camera. Two measurement schemes were used, restricted and continuous. In the restricted mode, measurements were made only after the TK450 chamber reached the requested temperature. In the continuous mode, the sample was heated at 10° C./minute and fast scans were measured as the temperature changed. After the pre-selected temperature was reached, the sample was cooled at 35° C./minute. To monitor for changes during the cooling, fast scans were again measured. At 25° C., a slow scan was measured. The temperatures chosen were based on DSC results. For the diffractometer set-up a 10 mm beam mask, 0.04 radian Soller slits and fixed (¼°) divergence and anti-scatter (⅛°) slits were inserted on the incident beam side. A fixed 0.10 mm receiving slit, 0.04 radian Soller slits and a 0.02 mm Nickel filter were inserted on the diffracted beam side. […] With the nitrogen gas supply turned off, the camera returned to ambient conditions. The humidity in the ambient state varies with the humidity in the laboratory, typically 30 to 40%, and with the temperature in the camera. As the temperature is raised, the relative humidity will drop. […]

Cn1c(CCCC(=O)O)nc2cc(N(CCCl)CCCl)ccc21 [Form 3, 4-{5-[Bis(2-chloroethyl)amino]-1-methyl-2-benzimidazolyl}butyric acid]
temperature after which the sample converts to amorphous material: > 133 °C | solid-solid transformations on heating (temperature range of 25° C. to 50° C.): No significant, solid-solid transformations
